# Source: PubChem BioAssay (NCI)
#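 GI50 is the concentration that inhibits growth by half. The concentration for full growth arrest is given as TGI.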
# Tests used:
# Test in all cases: DTP human tumour cell line panel, 384-well format
# [1] = test system: LOX IMVI melanoma
# [2] = test system: SNB-19 CNS
# [3] = test system: SF-268 CNS
# [4] = test system: EKVX NSCLC
# [5] = test system: HCT-15 colon
# [6] = test system: HOP-92 NSCLC
# [7] = test system: T-47D breast
# [8] = test system: NCI/ADR-RES ovarian
# [9] = test system: OVCAR-8 ovarian
# [10] = test system: OVCAR-5 ovarian
# [11] = test system: MOLT-4 leukemia
# [12] = test system: HL-60(TB) leukemia
# [13] = test system: CCRF-CEM leukemia
# [14] = test system: SF-539 CNS
# [15] = test system: CAKI-1 renal
# [16] = test system: RPMI-8226 leukemia
# [17] = test system: NCI-H322M lung
# [18] = test system: DU-145 prostate
# [19] = test system: SN12C renal
# [20] = test system: U251 glioblastoma
# [21] = test system: HOP-62 NSCLC
# [22] = test system: K-562 leukemia
# [23] = test system: SK-MEL-5 melanoma
# [24] = test system: BT-549 breast
# [25] = test system: COLO 205 colon
# [26] = test system: IGROV1 ovarian
# [27] = test system: SF-295 CNS
# [28] = test system: SW-620 colon
# [29] = test system: M14 melanoma
smiles,measurement,setting,value
CCOC(=O)C(Cc1ccc(CCCC(=O)NCCC(=O)Nc2ccc3nc(C)sc3c2)cc1)C(=O)OCC,GI50,[1],16.8 µM
same,TGI,[1],30.8 µM
same,GI50,[2],63.1 µM
same,TGI,[2],> 100 µM
same,GI50,[3],17.7 µM
same,TGI,[3],38.3 µM
same,GI50,[4],27.7 µM
same,TGI,[4],69.6 µM
same,GI50,[5],23.1 µM
same,TGI,[5],47.9 µM
same,GI50,[6],25.8 µM
same,TGI,[6],68.2 µM
same,GI50,[7],8.21 µM
same,TGI,[7],20.4 µM
same,GI50,[8],17.9 µM
same,TGI,[8],31.9 µM
same,GI50,[9],18.1 µM
same,TGI,[9],32 µM
same,GI50,[10],> 100 µM
same,TGI,[10],> 100 µM
same,GI50,[11],13 µM
same,TGI,[11],25.7 µM
same,GI50,[12],23 µM
same,TGI,[12],37.6 µM
same,GI50,[13],17.5 µM
same,TGI,[13],31.4 µM
same,GI50,[14],18.7 µM
same,TGI,[14],32.8 µM
same,GI50,[15],18.4 µM
same,TGI,[15],33.1 µM
same,GI50,[16],17.7 µM
same,TGI,[16],31.7 µM
same,GI50,[17],19.4 µM
same,TGI,[17],38.3 µM
same,GI50,[18],19.8 µM
same,TGI,[18],34.9 µM
same,GI50,[19],24.7 µM
same,TGI,[19],48.4 µM
same,GI50,[20],37.6 µM
same,TGI,[20],> 100 µM
same,GI50,[21],17.2 µM
same,TGI,[21],35.9 µM
same,GI50,[22],14 µM
same,TGI,[22],33.6 µM
same,GI50,[23],14.1 µM
same,TGI,[23],27.1 µM
same,GI50,[24],19.2 µM
same,TGI,[24],33.8 µM
same,GI50,[25],21.1 µM
same,TGI,[25],40.3 µM
same,GI50,[26],26.2 µM
same,TGI,[26],51.9 µM
same,GI50,[27],35.4 µM
same,TGI,[27],> 100 µM
same,GI50,[28],55.2 µM
same,TGI,[28],> 100 µM
same,GI50,[29],19.3 µM
same,TGI,[29],37 µM
